From PubChem BioAssay (NCI)
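Here, GI50 denotes the concentration required for 50% inhibition of growth. Definition used: TGI = concentration required for complete inhibition of growth.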

Assays:
Assay in all cases: NCI anticancer screen, dose series, 384-well format
SK-OV-3 ovarian = system: SK-OV-3 ovarian
BT-549 breast = system: BT-549 breast
MDA-MB-231 breast = system: MDA-MB-231 breast
TK-10 renal = system: TK-10 renal
SR leukemia = system: SR leukemia
SF-539 CNS = system: SF-539 CNS
M14 melanoma = system: M14 melanoma
HCT-116 colon = system: HCT-116 colon
SW-620 colon = system: SW-620 colon
MALME-3M melanoma = system: MALME-3M melanoma
MDA-MB-435 melanoma = system: MDA-MB-435 melanoma
MDA-MB-468 breast = system: MDA-MB-468 breast
786-0 renal = system: 786-0 renal
KM12 colon = system: KM12 colon
HOP-92 NSCLC = system: HOP-92 NSCLC
IGROV1 ovarian = system: IGROV1 ovarian
SK-MEL-28 melanoma = system: SK-MEL-28 melanoma
NCI/ADR-RES ovarian = system: NCI/ADR-RES ovarian
LOX IMVI melanoma = system: LOX IMVI melanoma
NCI-H226 lung = system: NCI-H226 lung
NCI-H460 NSCLC = system: NCI-H460 NSCLC
EKVX NSCLC = system: EKVX NSCLC
SF-295 CNS = system: SF-295 CNS
OVCAR-4 ovarian = system: OVCAR-4 ovarian
HL-60(TB) leukemia = system: HL-60(TB) leukemia
SN12C renal = system: SN12C renal
U251 glioblastoma = system: U251 glioblastoma
PC-3 prostate = system: PC-3 prostate

**Q.** With `COc1cc2ncnc(Nc3ccc(F)c(Cl)c3)c2cc1NC(=O)/C=C/CN1CCCCC1` as the compound, how does the GI50 (SK-OV-3 ovarian) read?
**A.** The GI50 was 619 nM.

**Q.** And the TGI (SK-OV-3 ovarian)?
**A.** Its TGI is 5930 nM.

**Q.** And the GI50 (BT-549 breast)?
**A.** Its GI50 is 1010 nM.

**Q.** And the TGI (BT-549 breast)?
**A.** The TGI was 2430 nM.

**Q.** And the GI50 (MDA-MB-231 breast)?
**A.** Its GI50 is 1230 nM.

**Q.** What about the TGI (MDA-MB-231 breast) of the same compound?
**A.** The TGI was 2490 nM.

**Q.** And the GI50 (TK-10 renal)?
**A.** Its GI50 is < 19.2 nM.

**Q.** What about the TGI (TK-10 renal) of the same compound?
**A.** Its TGI is 3920 nM.

**Q.** What about the GI50 (SR leukemia) of the same compound?
**A.** Its GI50 is 883 nM.

**Q.** And the TGI (SR leukemia)?
**A.** Its TGI is 2210 nM.

**Q.** What about the GI50 (SF-539 CNS) of the same compound?
**A.** Its GI50 is 1650 nM.

**Q.** What about the TGI (SF-539 CNS) of the same compound?
**A.** Its TGI is 3030 nM.

**Q.** And the GI50 (M14 melanoma)?
**A.** Its GI50 is 1740 nM.

**Q.** What about the TGI (M14 melanoma) of the same compound?
**A.** Its TGI is 3140 nM.

**Q.** And the GI50 (HCT-116 colon)?
**A.** The GI50 was 1570 nM.

**Q.** What about the TGI (HCT-116 colon) of the same compound?
**A.** The TGI was 2980 nM.

**Q.** What about the GI50 (SW-620 colon) of the same compound?
**A.** Its GI50 is 1620 nM.

**Q.** And the TGI (SW-620 colon)?
**A.** Its TGI is 3020 nM.

**Q.** What about the GI50 (MALME-3M melanoma) of the same compound?
**A.** Its GI50 is 1520 nM.

**Q.** And the TGI (MALME-3M melanoma)?
**A.** Its TGI is 2860 nM.

**Q.** What about the GI50 (MDA-MB-435 melanoma) of the same compound?
**A.** The GI50 was 1780 nM.

**Q.** What about the TGI (MDA-MB-435 melanoma) of the same compound?
**A.** The TGI was 3260 nM.

**Q.** And the GI50 (MDA-MB-468 breast)?
**A.** The GI50 was < 10 nM.

**Q.** What about the TGI (MDA-MB-468 breast) of the same compound?
**A.** Its TGI is < 19.9 nM.

**Q.** What about the GI50 (786-0 renal) of the same compound?
**A.** The GI50 was 784 nM.

**Q.** What about the TGI (786-0 renal) of the same compound?
**A.** Its TGI is 2290 nM.

**Q.** And the GI50 (KM12 colon)?
**A.** Its GI50 is 2050 nM.

**Q.** And the TGI (KM12 colon)?
**A.** Its TGI is 4370 nM.

**Q.** What about the GI50 (HOP-92 NSCLC) of the same compound?
**A.** Its GI50 is 1160 nM.

**Q.** What about the TGI (HOP-92 NSCLC) of the same compound?
**A.** The TGI was 2400 nM.

**Q.** And the GI50 (IGROV1 ovarian)?
**A.** The GI50 was < 27.3 nM.

**Q.** What about the TGI (IGROV1 ovarian) of the same compound?
**A.** Its TGI is 1560 nM.

**Q.** What about the GI50 (SK-MEL-28 melanoma) of the same compound?
**A.** Its GI50 is 1620 nM.

**Q.** What about the TGI (SK-MEL-28 melanoma) of the same compound?
**A.** Its TGI is 2980 nM.

**Q.** What about the GI50 (NCI/ADR-RES ovarian) of the same compound?
**A.** The GI50 was 1140 nM.

**Q.** What about the TGI (NCI/ADR-RES ovarian) of the same compound?
**A.** Its TGI is 2370 nM.

**Q.** And the GI50 (LOX IMVI melanoma)?
**A.** Its GI50 is 2540 nM.

**Q.** And the TGI (LOX IMVI melanoma)?
**A.** Its TGI is 5010 nM.

**Q.** And the GI50 (NCI-H226 lung)?
**A.** The GI50 was 3530 nM.

**Q.** What about the TGI (NCI-H226 lung) of the same compound?
**A.** The TGI was 5000 nM.

**Q.** What about the GI50 (NCI-H460 NSCLC) of the same compound?
**A.** Its GI50 is 1720 nM.

**Q.** And the TGI (NCI-H460 NSCLC)?
**A.** Its TGI is 3410 nM.

**Q.** And the TGI (EKVX NSCLC)?
**A.** Its TGI is 3810 nM.

**Q.** What about the GI50 (SF-295 CNS) of the same compound?
**A.** The GI50 was 4830 nM.

**Q.** What about the TGI (SF-295 CNS) of the same compound?
**A.** The TGI was 7340 nM.

**Q.** And the GI50 (OVCAR-4 ovarian)?
**A.** Its GI50 is 1180 nM.

**Q.** And the TGI (OVCAR-4 ovarian)?
**A.** Its TGI is 2470 nM.

**Q.** What about the GI50 (HL-60(TB) leukemia) of the same compound?
**A.** The GI50 was 973 nM.

**Q.** And the TGI (HL-60(TB) leukemia)?
**A.** The TGI was 2340 nM.

**Q.** What about the GI50 (SN12C renal) of the same compound?
**A.** Its GI50 is 595 nM.

**Q.** What about the TGI (SN12C renal) of the same compound?
**A.** The TGI was 2240 nM.

**Q.** And the GI50 (U251 glioblastoma)?
**A.** Its GI50 is 4090 nM.

**Q.** And the TGI (U251 glioblastoma)?
**A.** The TGI was 5530 nM.

**Q.** And the GI50 (PC-3 prostate)?
**A.** The GI50 was 1670 nM.

**Q.** And the TGI (PC-3 prostate)?
**A.** Its TGI is 3180 nM.
